Tests used:
[1] = molecular target: GST-tagged KRAS-G12D (2-169) (Homo sapiens, UniProt P01116, G12D); experiment: Nucleotide exchange assay (NEA), SOS-mediated, HTRF, KRAS G12D; format: biochemical; settings: Table 4; IC50 extracted at 30 min; 20 nM SOScat; read-out: NEA G12D IC50
Summary of the method: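 Compound preincubated 1 h at RT with 0.25 nM GST-KRAS-G12D (2-169) and anti-GST Tb donor, then 20 nM SOS1cat (564-1049) and 150 nM GTP-DY-647P1 added; pH 7.3 HEPES buffer with MgCl2 and DTT. HTRF monitored at RT; % inhibition versus DMSO and no-SOS blank, 4-parameter IC50 taken at 30 min.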

[2] = molecular target: GST-tagged KRAS-G12V (2-169) (Homo sapiens, UniProt P01116, G12V); experiment: Nucleotide exchange assay (NEA), SOS-mediated, HTRF, KRAS G12V; format: biochemical; settings: Table 4; IC50 extracted at 90 min; 80 nM SOS
GST-tagged KRAS-G12V (2-169), sequence (P01116 2-169 isoform P01116-2 G12V): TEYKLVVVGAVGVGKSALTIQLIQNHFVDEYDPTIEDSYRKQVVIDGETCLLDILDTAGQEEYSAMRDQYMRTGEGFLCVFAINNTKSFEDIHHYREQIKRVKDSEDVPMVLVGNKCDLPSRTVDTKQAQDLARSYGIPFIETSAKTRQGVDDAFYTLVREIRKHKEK
Summary of the method: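 GST-KRAS-G12V (2-169), 0.25 nM, pre-incubated 1 h at RT with compound, then SOS1cat (564-1049) 80 nM and GTP-DY-647P1 150 nM added in HEPES pH 7.3 buffer with MgCl2 and DTT. HTRF via anti-GST Tb cryptate read over 90 min; IC50 from 4-parameter fit at 90 min, blanked to no-SOS reactions.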

[3] = system: phospho-ERK in GP2D (KRAS-G12D) cells; experiment: pERK In Cell Western (ICW) assay (Method B), GP2D; format: cell-based; settings: GP2d, 3 h, Table 4
Summary of the method: (§1)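 SW620 (KRAS-G12V), GP2D (KRAS-G12D) and AGS cells, seeded overnight, were exposed to compounds (½-log, 9-point) for 3 h at 37°C, then fixed and stained for phospho-ERK. Infrared imaging; pERK normalized to DRAQ5 DNA stain, expressed as percent of blank control, IC50 by 4-parameter fit.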

[4] = system: phospho-ERK in SW620 (KRAS-G12V) cells; experiment: pERK In Cell Western (ICW) assay (Method B), SW620; format: cell-based; settings: Homo sapiens, SW-620, 3 h, Table 4
Summary of the method: as §1

GST-tagged KRAS-G12D (2-169), sequence (P01116 2-169 isoform P01116-2 G12D): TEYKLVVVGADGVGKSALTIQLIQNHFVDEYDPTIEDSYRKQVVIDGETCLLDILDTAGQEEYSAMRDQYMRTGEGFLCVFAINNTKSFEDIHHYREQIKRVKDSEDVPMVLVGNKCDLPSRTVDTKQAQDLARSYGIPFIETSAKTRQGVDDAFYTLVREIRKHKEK

Row | SMILES | IC50 [1] [nM] | IC50 [2] [nM] | IC50 [3] [nM] | IC50 [4] [nM]
1 | CCN(c1nc(OCC(C)N(C)C)nc(N2CC3(C2)SCc2sc(N)c(C#N)c23)n1)[C@H](C)c1cccnc1N (stereo partly drawn) [Compound 177, 2-amino-1′-[4-[[(1R)-1-(2-amino-3-pyridyl)ethyl]-ethyl-amino]-6-[2-(dimethylamino)propoxy]-1,3,5-triazin-2-yl]spiro[6H-thieno[3,4-b]thiophene-4,3′-azetidine]-3-carbonitrile] | 10 to 100 | < 10 | 100 to 1000 | 100 to 1000
2 | CCN(c1nc(OCCN2CCCCC2)nc(N2CC3(C2)SCc2sc(N)c(C#N)c23)n1)[C@H](C)c1cccnc1N [Compound 178, 2-amino-1′-[4-[[(1R)-1-(2-amino-3-pyridyl)ethyl]-ethyl-amino]-6-[2-(1-piperidyl)ethoxy]-1,3,5-triazin-2-yl]spiro[6H-thieno[3,4-b]thiophene-4,3′-azetidine]-3-carbonitrile] | 10 to 100 | < 10 | 100 to 1000 | 10 to 100
3 | CN(Cc1c(F)ccnc1N)c1nc(OC[C@@]23CCCN2C[C@H](F)C3)nc(N2CC3(C2)SCc2sc(N)c(C#N)c23)n1 [Compound 179, 2-amino-1′-[4-[(2-amino-4-fluoro-3-pyridyl)methyl-methyl-amino]-6-[[(2R,8S)-2-fluoro-1,2,3,5,6,7-hexahydropyrrolizin-8-yl]methoxy]-1,3,5-triazin-2-yl]spiro[6H-thieno[2,3-c]thiophene-4,3′-azetidine]-3-carbonitrile] | 10 to 100 | < 10 | 100 to 1000 | 10 to 100
4 | C[C@H](c1cccnc1N)N(CCF)c1nc(OC[C@@]23CCCN2C[C@H](F)C3)nc(N2CC3(C2)SCc2sc(N)c(C#N)c23)n1 [Compound 180, 2′-amino-1-(4-(((R)-1-(2-aminopyridin-3-yl)ethyl)(2-fluoroethyl)amino)-6-(((2R,7aS)-2-fluorotetrahydro-1H-pyrrolizin-7a(5H)-yl)methoxy)-1,3,5-triazin-2-yl)-6′H-spiro[azetidine-3,4′-thieno[3,4-b]thiophene]-3′-carbonitrile] | < 10 | < 10 | < 10 | < 10
5 | C[C@H](c1cccnc1N)N(CC(F)F)c1nc(OC[C@@]23CCCN2C[C@H](F)C3)nc(N2CC3(C2)SCc2sc(N)c(C#N)c23)n1 [Compound 183, 2-amino-1′-[4-[[(1R)-1-(2-amino-3-pyridyl)ethyl]-(2,2-difluoroethyl)amino]-6-[[(2R,8S)-2-fluoro-1,2,3,5,6,7-hexahydropyrrolizin-8-yl]methoxy]-1,3,5-triazin-2-yl]spiro[6H-thieno[3,4-b]thiophene-4,3′-azetidine]-3-carbonitrile] | < 10 | < 10 | < 10 | < 10
6 | N#Cc1c(N)sc2c1C1(CN(c3nc(OC[C@@]45CCCN4C[C@H](F)C5)nc(N4CC(=O)Nc5ncccc5C4)n3)C1)SC2 [Compound 189, 2-amino-1′-[4-[[(2R,8S)-2-fluoro-1,2,3,5,6,7-hexahydropyrrolizin-8-yl]methoxy]-6-(2-oxo-3,5-dihydro-1H-pyrido[2,3-e][1,4]diazepin-4-yl)-1,3,5-triazin-2-yl]spiro[6H-thieno[3,4-b]thiophene-4,3′-azetidine]-3-carbonitrile] | 100 to 1000 | 10 to 100 | 1000 to 20000 | 1000 to 20000
7 | N#Cc1c(N)sc2c1C1(CN(c3nc(OCC4(CN5CCOCC5)CC4)nc(N4CCNC[C@H]4C(F)F)n3)C1)SC2 [Compound 190, (S)-2′-amino-1-(4-(2-(difluoromethyl)piperazin-1-yl)-6-((1-(morpholinomethyl)cyclopropyl)methoxy)-1,3,5-triazin-2-yl)-6′H-spiro[azetidine-3,4′-thieno[3,4-b]thiophene]-3′-carbonitrile] | < 10 | 10 to 100 | 100 to 1000 | 1000 to 20000
8 | N#Cc1c(N)sc2c1C1(CN(c3nc(OC[C@@]45CCCN4C[C@H](F)C5)nc(N(CC(N)=O)Cc4cccnc4N)n3)C1)SC2 [Compound 194, 2-[[4-(2-amino-3-cyano-spiro[6H-thieno[3,4-b]thiophene-4,3′-azetidine]-1′-yl)-6-[[(2R,8S)-2-fluoro-1,2,3,5,6,7-hexahydropyrrolizin-8-yl]methoxy]-1,3,5-triazin-2-yl]-[(2-amino-3-pyridyl)methyl]amino]acetamide] | < 10 | < 10 | 1000 to 20000 | 1000 to 20000
9 | C[C@H](c1cccnc1N)N(CC(F)F)c1nc(OC[C@@H]2CCCN2C)nc(N2CC3(C2)SCc2sc(N)c(C#N)c23)n1 [Compound 196, 2′-amino-1-(4-(((R)-1-(2-aminopyridin-3-yl)ethyl)(2,2-difluoroethyl)amino)-6-(((S)-1-methylpyrrolidin-2-yl)methoxy)-1,3,5-triazin-2-yl)-6′H-spiro[azetidine-3,4′-thieno[3,4-b]thiophene]-3′-carbonitrile] | < 10 | < 10 | 10 to 100 | < 10
10 | CCN(c1nc(OC[C@@]23CCCN2C[C@H](F)C3)nc(N2CC3(CCc4sc(N)c(C#N)c43)C2=O)n1)[C@H](C)c1cccnc1N (stereo partly drawn) [Compound 201, 2-amino-1′-[4-[[(1R)-1-(2-amino-3-pyridyl)ethyl]-ethyl-amino]-6-[[(2R,8S)-2-fluoro-1,2,3,5,6,7-hexahydropyrrolizin-8-yl]methoxy]-1,3,5-triazin-2-yl]-2′-oxo-spiro[5,6-dihydrocyclopenta[b]thiophene-4,3′-azetidine]-3-carbonitrile] | < 10 | < 10 | 10 to 100 | 10 to 100
11 | CCN(c1nc(OCC2(COC)CCCN2)nc(N2CC3(C2)SCc2sc(N)c(C#N)c23)n1)[C@H](C)c1cccnc1N (stereo partly drawn) [Compound 202, 2-amino-1′-[4-[[(1R)-1-(2-amino-3-pyridyl)ethyl]-ethyl-amino]-6-[[2-(methoxymethyl)pyrrolidin-2-yl]methoxy]-1,3,5-triazin-2-yl]spiro[6H-thieno[3,4-b]thiophene-4,3′-azetidine]-3-carbonitrile] | < 10 | < 10 | 10 to 100 | 10 to 100
12 | CCN(c1nc(OCC2(CN3C4CCC3COC4)CC2)nc(N2CC3(C2)SCc2sc(N)c(C#N)c23)n1)[C@H](C)c1cccnc1N [Compound 203, 2-amino-1′-[4-[[(1R)-1-(2-amino-3-pyridyl)ethyl]-ethyl-amino]-6-[[1-(3-oxa-8-azabicyclo[3.2.1]octan-8-ylmethyl)cyclopropyl]methoxy]-1,3,5-triazin-2-yl]spiro[6H-thieno[3,4-b]thiophene-4,3′-azetidine]-3-carbonitrile] | < 10 | < 10 | 10 to 100 | 10 to 100
13 | CCN(c1nc(OCC23CCC(COC2)N3)nc(N2CC3(C2)SCc2sc(N)c(C#N)c23)n1)[C@H](C)c1cccnc1N (stereo partly drawn) [Compound 204, 1-(4-((3-oxa-8-azabicyclo[3.2.1]octan-1-yl)methoxy)-6-(((R)-1-(2-aminopyridin-3-yl)ethyl)(ethyl)amino)-1,3,5-triazin-2-yl)-2′-amino-6′H-spiro[azetidine-3,4′-thieno[3,4-b]thiophene]-3′-carbonitrile] | 10 to 100 | < 10 | 100 to 1000 | 10 to 100
14 | CCN(c1nc(OCC23CCCN2CCC3)nc(N2CC3(C2)SCc2sc(N)c(C#N)c23)n1)[C@H](C)c1cccnc1N [Compound 206, (R)-2′-amino-1-(4-((1-(2-aminopyridin-3-yl)ethyl)(ethyl)amino)-6-((tetrahydro-1H-pyrrolizin-7a(5H)-yl)methoxy)-1,3,5-triazin-2-yl)-6′H-spiro[azetidine-3,4′-thieno[3,4-b]thiophene]-3′-carbonitrile] | < 10 | < 10 | < 10 | 10 to 100
15 | CCN(c1nc(OC[C@@H]2CCCN2C)nc(N2CC3(C2)SCc2sc(N)c(C#N)c23)n1)[C@H](C)c1cccnc1N [Compound 207, 2-amino-1′-[4-[[(1R)-1-(2-amino-3-pyridyl)ethyl]-ethyl-amino]-6-[[(2S)-1-methylpyrrolidin-2-yl]methoxy]-1,3,5-triazin-2-yl]spiro[6H-thieno[3,4-b]thiophene-4,3′-azetidine]-3-carbonitrile] | < 10 | < 10 | 10 to 100 | 10 to 100
16 | CCN(c1nc(OC[C@@H]2C[C@@H](F)CN2)nc(N2CC3(C2)SCc2sc(N)c(C#N)c23)n1)[C@H](C)c1cccnc1N [Compound 209, 2-amino-1′-[4-[[(1R)-1-(2-amino-3-pyridyl)ethyl]-ethyl-amino]-6-[[(2S,4R)-4-fluoropyrrolidin-2-yl]methoxy]-1,3,5-triazin-2-yl]spiro[6H-thieno[3,4-b]thiophene-4,3′-azetidine]-3-carbonitrile] | < 10 | < 10 | < 10 | 10 to 100

— patent US12421254B2, “KRAS modulators and uses thereof” (Quanta Therapeutics, Inc., priority 2023, dated 2025)
